From PubChem BioAssay (NCI)
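A five-concentration, 48-hour dose response in 96-well plates underlies each endpoint, interpolated linearly between surrounding concentrations. TGI: concentration producing complete growth inhibition.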

Key:
Experiment in all cases: NCI-60 cell line screen, 48 h
[1] = tested on: MOLT-4 leukemia
[2] = tested on: HCT-15 colon
[3] = tested on: CAKI-1 renal
[4] = tested on: MDA-MB-231 breast
[5] = tested on: U251 CNS
[6] = tested on: NCI-H460 lung
[7] = tested on: MCF7 breast
[8] = tested on: TK-10 renal
[9] = tested on: SNB-75 CNS
[10] = tested on: OVCAR-4 ovarian
[11] = tested on: SK-OV-3 ovarian
[12] = tested on: M14 melanoma
[13] = tested on: MALME-3M melanoma
[14] = tested on: IGROV1 ovarian
[15] = tested on: OVCAR-5 ovarian
[16] = tested on: SK-MEL-28 melanoma
[17] = tested on: NCI-H23 lung
[18] = tested on: HCC-2998 colon
[19] = tested on: HOP-62 NSCLC
[20] = tested on: LOX IMVI melanoma
[21] = tested on: COLO 205 colon
[22] = tested on: HT29 colon
[23] = tested on: RPMI-8226 leukemia
[24] = tested on: UACC-62 melanoma
[25] = tested on: SN12C renal
[26] = tested on: UACC-257 melanoma
[27] = tested on: BT-549 breast
[28] = tested on: CCRF-CEM leukemia
[29] = tested on: OVCAR-8 ovarian
[30] = tested on: K-562 leukemia
[31] = tested on: ACHN renal
[32] = tested on: T-47D breast
[33] = tested on: KM12 colon
[34] = tested on: MDA-N
[35] = tested on: EKVX NSCLC
[36] = tested on: NCI-H226 lung
[37] = tested on: NCI-H522 lung
[38] = tested on: SF-539 CNS
[39] = tested on: DU-145 prostate
[40] = tested on: UO-31 renal
[41] = tested on: SNB-19 CNS
[42] = tested on: OVCAR-3 ovarian
[43] = tested on: RXF 393 renal
[44] = tested on: NCI/ADR-RES ovarian
[45] = tested on: SR leukemia
[46] = tested on: A549 NSCLC
[47] = tested on: HOP-92 NSCLC
[48] = tested on: SK-MEL-5 melanoma
[49] = tested on: HCT-116 colon
[50] = tested on: A498 renal
[51] = tested on: SF-268 CNS
[52] = tested on: MDA-MB-435
[53] = tested on: 786-0 renal
[54] = tested on: SK-MEL-2 melanoma
[55] = tested on: SF-295 CNS
[56] = tested on: SW-620 colon
[57] = tested on: HS 578T breast
[58] = tested on: HL-60(TB) leukemia
[59] = tested on: PC-3 prostate

O=C(O)C(CO)NC(=O)C1C(C(=O)O)C(c2ccccc2[N+](=O)[O-])C=C(c2ccco2)N1c1ccncc1 (configuration not stated)
TGI [1]: > 22.5 µM
TGI [2]: 4.39 µM
TGI [3]: 24.3 µM
TGI [4]: 7.56 µM
TGI [5]: 6.21 µM
TGI [6]: 18.5 µM
TGI [7]: 5.63 µM
TGI [8]: 9.48 µM
TGI [9]: 22.3 µM
TGI [10]: 25.3 µM
TGI [11]: 29.4 µM
TGI [12]: 13.9 µM
TGI [13]: 29.1 µM
TGI [14]: 4.15 µM
TGI [15]: 25.4 µM
TGI [16]: 22.5 µM
TGI [17]: 19.9 µM
TGI [18]: 9.13 µM
TGI [19]: 25.2 µM
TGI [20]: 3.42 µM
TGI [21]: 12 µM
TGI [22]: 3.66 µM
TGI [23]: 4.22 µM
TGI [24]: 20.3 µM
TGI [25]: 25.4 µM
TGI [26]: 9.9 µM
TGI [27]: 22.8 µM
TGI [28]: 5.32 µM
TGI [29]: 31 µM
TGI [30]: 5.74 µM
TGI [31]: 3.67 µM
TGI [32]: 23.9 µM
TGI [33]: 3.35 µM
TGI [34]: 8.42 µM
TGI [35]: 32.7 µM
TGI [36]: 39.1 µM
TGI [37]: 19 µM
TGI [38]: 3.64 µM
TGI [39]: 23.6 µM
TGI [40]: 10.4 µM
TGI [41]: 24.5 µM
TGI [42]: 17.1 µM
TGI [43]: 3.12 µM
TGI [44]: 59 µM
TGI [45]: > 100 µM
TGI [46]: 11.1 µM
TGI [47]: 25.7 µM
TGI [48]: 10.2 µM
TGI [49]: 3.08 µM
TGI [50]: 24.8 µM
TGI [51]: 30.5 µM
TGI [52]: 16.8 µM
TGI [53]: 6.01 µM
TGI [54]: 31 µM
TGI [55]: 19 µM
TGI [56]: 3.79 µM
TGI [57]: 57.5 µM
TGI [58]: > 100 µM
TGI [59]: 22.1 µM

O=[N+]([O-])c1ccc(-[n+]2ccc3ccccc3c2)c([N+](=O)[O-])c1
TGI [1]: > 21 µM
TGI [2]: 3.65 µM
TGI [3]: 8.74 µM
TGI [4]: 9.01 µM
TGI [5]: 17.7 µM
TGI [6]: 30.1 µM
TGI [7]: 3.75 µM
TGI [8]: 3.52 µM
TGI [9]: 8.74 µM
TGI [10]: 3.04 µM
TGI [11]: 27.1 µM
TGI [12]: 8.69 µM
TGI [13]: 9.09 µM
TGI [14]: 8.61 µM
TGI [15]: 23.9 µM
TGI [16]: 8.25 µM
TGI [17]: 6.03 µM
TGI [18]: 26.7 µM
TGI [19]: 20 µM
TGI [20]: 3.67 µM
TGI [21]: 6.29 µM
TGI [22]: 6.5 µM
TGI [23]: 6.68 µM
TGI [24]: 5.53 µM
TGI [25]: 6.82 µM
TGI [26]: 4.08 µM
TGI [27]: 13.5 µM
TGI [28]: 5.38 µM
TGI [29]: 6.74 µM
TGI [30]: > 23.2 µM
TGI [31]: 4.44 µM
TGI [32]: 4.35 µM
TGI [33]: 27.7 µM
TGI [34]: 6 µM
TGI [35]: 19.4 µM
TGI [36]: 43.6 µM
TGI [37]: 3.74 µM
TGI [38]: 12 µM
TGI [39]: 27.8 µM
TGI [40]: 9.28 µM
TGI [41]: 34.7 µM
TGI [42]: 6.2 µM
TGI [43]: 3.83 µM
TGI [44]: 11.9 µM
TGI [45]: > 100 µM
TGI [46]: 34.1 µM
TGI [47]: 5.29 µM
TGI [48]: 6.56 µM
TGI [49]: 5.95 µM
TGI [50]: 28 µM
TGI [51]: 11.9 µM
TGI [52]: 7.07 µM
TGI [53]: 3.24 µM
TGI [54]: 25.2 µM
TGI [55]: 28.5 µM
TGI [57]: 49.6 µM
TGI [58]: 3.71 µM
TGI [59]: 13.1 µM
